Structures can show the parent of a compound that is named as a salt.
Legend:
[1] = target: T1, human serotonin transporter (Homo sapiens, UniProt P31645); assay: Inhibitory action on human serotonin transporter ([3H]-5-hydroxytryptamine uptake in CHO cells); assay type: cell-based; conditions: CHO, relative to inhibitory activity of 10 μM Paroxetine as 100%, read-out: inhibitory rate (%); for inhibition at 1 µM: compound 1 μM
T1 construct: expressed in transfected cells
How it was run: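 CHO-K1 cells stably expressing human SERT, plated overnight, took up [3H]-5-HT (diluted to 200 nM before a 1:10 addition) for 20 min in HEPES-buffered saline with glucose and 0.5% BSA; radioactivity counted by scintillation. Compounds at 10 μM or 1 μM, activity expressed relative to 10 μM paroxetine set as 100%.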

SD female rats = assay: Measurement of urethral resistance increasing effect (leak point pressure, oral administration); assay type: in vivo, rat
Method: The urethral resistance increasing effect in rat was measured by a modified method of Matsumoto et al. (WO2009/063992) as follows. That is, SD female rats (CLEA Japan, Inc.) were anesthetized with isoflurane (1.0%; Abbott), and the spinal cord was transected at Th8-9 to avoid the voiding reflex. After laparotomy, an intravesical pressure measurement catheter and a saline infusion catheter (PE-100; Clay Adams) were inserted into the bladder. Thereafter, the abdomen of the rat was closed with aronalpha A “Sankyo” (Daiichi Sankyo). The rat with an inserted catheter was placed in a Bollman cage (KN-326 Bollman cage TYPE III; Natsume). The intravesical pressure measurement catheter was connected to a computer via a pressure transducer (DX-100; Nihon Koden), an amplifier (RPM-6008M; Nihon Koden/303638; SAN-EI), and a multi-channel data analyzer (MP150/MP100; Biopack), and changes in the intravesical pressure were recorded on a hard disc at a frequency of 100 samples/sec. The saline infusion catheter was connected to a 50 mL syringe (Terumo) filled with saline colored with Evans Blue (Wako). The saline was infused into the bladder from the 50 mL syringe filled with saline at a rate of 0.1 mL/sec by using an infusion pump (Kds100; KD Scientific). When the saline leaked from the urethral orifice, infusion was discontinued, and the saline in the bladder was released. The maximum pressure observed during infusion of saline into the bladder and leakage thereof was taken as an LPP (Leak point pressure) value. The measurement was repeated until the LPP value was stabilized, and an average of continuous three stable LPP values was taken as the result. In addition, the measurement of drug effect was started 1 hr after the animal was placed in the Bollman cage. The LPP value (Pre value) was measured, a drug was orally administered, and the measurement of LPP value (Post value) was again started 15 min, 30 min, 1 hr, 2 hr and 4 hr after administration. The urethral resistance increasing effect by the drug was shown by the difference between the LPP value (Post value) and LPP value (Pre value). The drug was orally administered at 2.0 mL/kg, using 0.5% methylcellulose as a vehicle. For detection of a significant difference in the urethral resistance increasing effect by the drug as compared to the vehicle, the following method was used. For comparison of 3 or more groups, the Williams' test was used for a parametric test, and the Shirley-Williams' test was used for a non-parametric test. For comparison of 2 groups, the Student's t-test was used for a parametric test, and the […] was used for a non-parametric test.

T1 sequence (P31645 whole entry): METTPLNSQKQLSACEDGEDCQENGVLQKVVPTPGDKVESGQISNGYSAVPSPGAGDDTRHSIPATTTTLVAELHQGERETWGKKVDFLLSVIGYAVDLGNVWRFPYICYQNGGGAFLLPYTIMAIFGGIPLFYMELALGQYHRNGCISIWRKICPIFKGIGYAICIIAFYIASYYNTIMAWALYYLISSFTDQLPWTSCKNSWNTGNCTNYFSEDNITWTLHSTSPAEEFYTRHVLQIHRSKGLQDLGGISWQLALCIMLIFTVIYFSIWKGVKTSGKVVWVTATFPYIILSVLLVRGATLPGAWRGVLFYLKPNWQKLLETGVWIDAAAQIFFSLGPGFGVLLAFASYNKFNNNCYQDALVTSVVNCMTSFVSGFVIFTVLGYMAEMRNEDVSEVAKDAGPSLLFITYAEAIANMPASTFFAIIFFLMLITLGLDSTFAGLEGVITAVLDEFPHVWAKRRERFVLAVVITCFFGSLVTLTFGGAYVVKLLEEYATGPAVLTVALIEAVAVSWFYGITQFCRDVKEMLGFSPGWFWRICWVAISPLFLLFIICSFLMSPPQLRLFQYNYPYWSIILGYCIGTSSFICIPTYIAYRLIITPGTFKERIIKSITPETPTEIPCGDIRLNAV

Row | SMILES | inhibition at 1 µM [1] [%] | inhibition at 10 µM ([1]; compound 10 μM, CHO cells expressing human serotonin transporter) [%] | urethral resistance increasing effect (cmH2O) (SD female rats; 1.0 mg/kg oral, 15 min later) | urethral resistance increasing effect (cmH2O) (SD female rats; 1.0 mg/kg oral, 30 min later) | urethral resistance increasing effect (cmH2O) (SD female rats; 3.0 mg/kg oral, 15 min later) | urethral resistance increasing effect (cmH2O) (SD female rats; 3.0 mg/kg oral, 30 min later) | urethral resistance increasing effect (cmH2O) (SD female rats; 10.0 mg/kg oral, 15 min later) | urethral resistance increasing effect (cmH2O) (SD female rats; 10.0 mg/kg oral, 30 min later) | urethral resistance increasing effect (cmH2O) (SD female rats; 0.3 mg/kg oral, 15 min later) | urethral resistance increasing effect (cmH2O) (SD female rats; 0.3 mg/kg oral, 30 min later)
1 | CC(=O)NC[C@H]1CNCCO[C@@H]1c1ccc(Cl)c(Cl)c1 (racemic) [Example 6, N-{[(6RS,7SR)-7-(3,4-dichlorophenyl)-1,4-oxazepan-6-yl]methyl}acetamide monohydrochloride] | 84 | 98 |  |  |  |  |  |  |  | 
2 | O=c1[nH]c(-c2cccn(C[C@@H]3CNCCO[C@H]3c3ccc(Cl)c(Cl)c3)c2=O)no1 [Example 31, 1-{[(6S,7R)-7-(3,4-dichlorophenyl)-1,4-oxazepan-6-yl]methyl}-3-(5-oxo-4,5-dihydro-1,2,4-oxadiazol-3-yl)pyridin-2(1H)-one monohydrochloride] | 95 |  | 6.7 ± 2.5 | 9.0 ± 3.8 | 13.2 ± 3.8 | 14.5 ± 3.6 | 16.2 ± 2.1 | 14.3 ± 2.2 |  | 
3 | CC(=O)NC[C@@H]1CNCCO[C@H]1c1ccc(Cl)c(Cl)c1 [Example 32, N-{[(6S,7R)-7-(3,4-dichlorophenyl)-1,4-oxazepan-6-yl]methyl}acetamide 0.5 fumarate] | 84 |  |  |  |  |  | 18.3 ± 2.1 | 17.1 ± 3.2 |  | 
4 | COCC(=O)NC[C@@H]1CNCCO[C@H]1c1ccc(Cl)c(Cl)c1 [Example 33, N-{[(6S,7R)-7-(3,4-dichlorophenyl)-1,4-oxazepan-6-yl]methyl}-2-methoxyacetamide monohydrochloride] | 92 |  |  |  |  |  | 21.8 ± 3.3 | 20.9 ± 3.4 |  | 
5 | CC(=O)N[C@@H]1CNCCO[C@H]1c1ccc(Cl)c(Cl)c1 [Example 36, N-[(6R,7S)-7-(3,4-dichlorophenyl)-1,4-oxazepan-6-yl]acetamide monofumarate] | 69 |  |  |  |  |  | 15.0 ± 1.8 | 14.3 ± 1.8 |  | 
6 | NS(=O)(=O)N[C@@H]1CNCCO[C@H]1c1ccc(Cl)c(Cl)c1 [Example 37, N-[(6R,7S)-7-(3,4-dichlorophenyl)-1,4-oxazepan-6-yl]sulfamide monohydrochloride] | 71 |  |  |  | 8.5 ± 1.4 | 7.6 ± 1.6 | 16.3 ± 1.2 | 17.2 ± 1.9 |  | 
7 | COCC(=O)NC[C@@H]1CNCCO[C@H]1c1ccc(Cl)c(F)c1 [Example 38, N-{[(6S,7R)-7-(4-chloro-3-fluorophenyl)-1,4-oxazepan-6-yl]methyl}-2-methoxyacetamide monohydrochloride] | 69 |  | 12.9 ± 3.3 | 9.3 ± 1.6 | 18.0 ± 2.5 | 17.4 ± 2.4 | 21.6 ± 2.9 | 21.3 ± 3.3 | 4.2 ± 1.7 | 5.1 ± 1.7
8 | [2H]C([2H])([2H])OCC(=O)NC[C@@H]1CNCCO[C@H]1c1ccc(Cl)c(F)c1 [Example 39, N-{[(6S,7R)-7-(4-chloro-3-fluorophenyl)-1,4-oxazepan-6-yl]methyl}-2-[(^2H3)methyloxy]acetamide monohydrochloride] | 58 |  | 12.3 ± 2.2 | 8.7 ± 2.6 | 15.8 ± 1.7 | 14.1 ± 1.5 | 17.9 ± 1.8 | 17.1 ± 2.3 |  | 
9 | CCOCC(=O)NC[C@@H]1CNCCO[C@H]1c1ccc(Cl)c(F)c1 [Example 40, N-{[(6S,7R)-7-(4-chloro-3-fluorophenyl)-1,4-oxazepan-6-yl]methyl}-2-ethoxyacetamide monohydrochloride] | 80 |  | 8.5 ± 1.9 | 8.6 ± 2.6 | 11.4 ± 1.9 | 12.8 ± 1.6 | 16.6 ± 2.0 | 17.2 ± 2.2 |  | 
10 | CC(C)OCC(=O)NC[C@@H]1CNCCO[C@H]1c1ccc(Cl)c(F)c1 [Example 41, N-{[(6S,7R)-7-(4-chloro-3-fluorophenyl)-1,4-oxazepan-6-yl]methyl}-2-(1-methylethoxy)acetamide monohydrochloride] | 70 |  |  |  | 9.8 ± 3.8 | 9.6 ± 2.3 | 17.8 ± 1.6 | 16.1 ± 1.5 |  | 
11 | O=c1[nH]c(-c2cccn(C[C@@H]3CNCCO[C@H]3c3ccc(Cl)c(F)c3)c2=O)no1 [Example 43, 1-{[(6S,7R)-7-(4-chloro-3-fluorophenyl)-1,4-oxazepan-6-yl]methyl}-3-(5-oxo-4,5-dihydro-1,2,4-oxadiazol-3-yl)pyridin-2(1H)-one monohydrochloride] | 72 |  |  |  | 8.4 ± 3.0 | 11.8 ± 2.8 | 13.9 ± 2.1 | 14.8 ± 0.9 |  | 
12 | O=C(O)c1cccn(C[C@@H]2CNCCO[C@H]2c2ccc(Cl)c(F)c2)c1=O [Example 44, 1-{[(6S,7R)-7-(4-chloro-3-fluorophenyl)-1,4-oxazepan-6-yl]methyl}-2-oxo-1,2-dihydropyridine-3-carboxylic acid monohydrochloride] | 40 |  | 8.6 ± 2.6 | 9.8 ± 2.6 | 15.5 ± 3.7 | 13.7 ± 3.3 | 18.8 ± 1.5 | 16.4 ± 1.5 | 0.1 ± 2.5 | 2.2 ± 2.6

Source: patent publication US20130267494A1, “1,4-OXAZEPANE DERIVATIVES” (priority 2010, published 2013)
